The term IC50 denotes the concentration needed to halve the response being measured.

In patent publication US20230148214A1, “INDAZOLES AND AZAINDAZOLES AS LRRK2 INHIBITORS” (ESCAPE Bio, Inc., priority 2020, published 2023) one finds IC50 data, which are given here for 25 compounds.

One test deals with T1, LRRK2 WT (Homo sapiens, UniProt Q5S007).
T1 construct: purchased Life Technologies PR8604B
As to the kind of experiment: LRRK2 Kinase Activity Assay (LanthaScreen TR-FRET), wild type. Type of test: biochemical. The settings on record: recombinant wild type LRRK2, 25 μM ATP, 400 nM LRRKtide, 60 min; class symbols. The gist of the method:
(§1)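 Recombinant wild-type or G2019S LRRK2 incubated with fluorescein-labeled LRRKtide (ERM-based) peptide, ATP and serially diluted compound for 60 min at room temperature.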
A general note: In TR-FRET formats the signal depends on donor and acceptor labels being close together.

For another test, the target named is T2, LRRK2 G2019S (Homo sapiens, UniProt Q5S007, G2019S).
T2 construct: purchased Life Technologies PV4881
As to the kind of experiment: LRRK2 Kinase Activity Assay (LanthaScreen TR-FRET), G2019S. Format: biochemical. The settings on record: recombinant G2019S-LRRK2, 25 μM ATP, 400 nM LRRKtide, 60 min; class symbols. The gist of the method: as §1

T1 sequence (Q5S007 whole entry): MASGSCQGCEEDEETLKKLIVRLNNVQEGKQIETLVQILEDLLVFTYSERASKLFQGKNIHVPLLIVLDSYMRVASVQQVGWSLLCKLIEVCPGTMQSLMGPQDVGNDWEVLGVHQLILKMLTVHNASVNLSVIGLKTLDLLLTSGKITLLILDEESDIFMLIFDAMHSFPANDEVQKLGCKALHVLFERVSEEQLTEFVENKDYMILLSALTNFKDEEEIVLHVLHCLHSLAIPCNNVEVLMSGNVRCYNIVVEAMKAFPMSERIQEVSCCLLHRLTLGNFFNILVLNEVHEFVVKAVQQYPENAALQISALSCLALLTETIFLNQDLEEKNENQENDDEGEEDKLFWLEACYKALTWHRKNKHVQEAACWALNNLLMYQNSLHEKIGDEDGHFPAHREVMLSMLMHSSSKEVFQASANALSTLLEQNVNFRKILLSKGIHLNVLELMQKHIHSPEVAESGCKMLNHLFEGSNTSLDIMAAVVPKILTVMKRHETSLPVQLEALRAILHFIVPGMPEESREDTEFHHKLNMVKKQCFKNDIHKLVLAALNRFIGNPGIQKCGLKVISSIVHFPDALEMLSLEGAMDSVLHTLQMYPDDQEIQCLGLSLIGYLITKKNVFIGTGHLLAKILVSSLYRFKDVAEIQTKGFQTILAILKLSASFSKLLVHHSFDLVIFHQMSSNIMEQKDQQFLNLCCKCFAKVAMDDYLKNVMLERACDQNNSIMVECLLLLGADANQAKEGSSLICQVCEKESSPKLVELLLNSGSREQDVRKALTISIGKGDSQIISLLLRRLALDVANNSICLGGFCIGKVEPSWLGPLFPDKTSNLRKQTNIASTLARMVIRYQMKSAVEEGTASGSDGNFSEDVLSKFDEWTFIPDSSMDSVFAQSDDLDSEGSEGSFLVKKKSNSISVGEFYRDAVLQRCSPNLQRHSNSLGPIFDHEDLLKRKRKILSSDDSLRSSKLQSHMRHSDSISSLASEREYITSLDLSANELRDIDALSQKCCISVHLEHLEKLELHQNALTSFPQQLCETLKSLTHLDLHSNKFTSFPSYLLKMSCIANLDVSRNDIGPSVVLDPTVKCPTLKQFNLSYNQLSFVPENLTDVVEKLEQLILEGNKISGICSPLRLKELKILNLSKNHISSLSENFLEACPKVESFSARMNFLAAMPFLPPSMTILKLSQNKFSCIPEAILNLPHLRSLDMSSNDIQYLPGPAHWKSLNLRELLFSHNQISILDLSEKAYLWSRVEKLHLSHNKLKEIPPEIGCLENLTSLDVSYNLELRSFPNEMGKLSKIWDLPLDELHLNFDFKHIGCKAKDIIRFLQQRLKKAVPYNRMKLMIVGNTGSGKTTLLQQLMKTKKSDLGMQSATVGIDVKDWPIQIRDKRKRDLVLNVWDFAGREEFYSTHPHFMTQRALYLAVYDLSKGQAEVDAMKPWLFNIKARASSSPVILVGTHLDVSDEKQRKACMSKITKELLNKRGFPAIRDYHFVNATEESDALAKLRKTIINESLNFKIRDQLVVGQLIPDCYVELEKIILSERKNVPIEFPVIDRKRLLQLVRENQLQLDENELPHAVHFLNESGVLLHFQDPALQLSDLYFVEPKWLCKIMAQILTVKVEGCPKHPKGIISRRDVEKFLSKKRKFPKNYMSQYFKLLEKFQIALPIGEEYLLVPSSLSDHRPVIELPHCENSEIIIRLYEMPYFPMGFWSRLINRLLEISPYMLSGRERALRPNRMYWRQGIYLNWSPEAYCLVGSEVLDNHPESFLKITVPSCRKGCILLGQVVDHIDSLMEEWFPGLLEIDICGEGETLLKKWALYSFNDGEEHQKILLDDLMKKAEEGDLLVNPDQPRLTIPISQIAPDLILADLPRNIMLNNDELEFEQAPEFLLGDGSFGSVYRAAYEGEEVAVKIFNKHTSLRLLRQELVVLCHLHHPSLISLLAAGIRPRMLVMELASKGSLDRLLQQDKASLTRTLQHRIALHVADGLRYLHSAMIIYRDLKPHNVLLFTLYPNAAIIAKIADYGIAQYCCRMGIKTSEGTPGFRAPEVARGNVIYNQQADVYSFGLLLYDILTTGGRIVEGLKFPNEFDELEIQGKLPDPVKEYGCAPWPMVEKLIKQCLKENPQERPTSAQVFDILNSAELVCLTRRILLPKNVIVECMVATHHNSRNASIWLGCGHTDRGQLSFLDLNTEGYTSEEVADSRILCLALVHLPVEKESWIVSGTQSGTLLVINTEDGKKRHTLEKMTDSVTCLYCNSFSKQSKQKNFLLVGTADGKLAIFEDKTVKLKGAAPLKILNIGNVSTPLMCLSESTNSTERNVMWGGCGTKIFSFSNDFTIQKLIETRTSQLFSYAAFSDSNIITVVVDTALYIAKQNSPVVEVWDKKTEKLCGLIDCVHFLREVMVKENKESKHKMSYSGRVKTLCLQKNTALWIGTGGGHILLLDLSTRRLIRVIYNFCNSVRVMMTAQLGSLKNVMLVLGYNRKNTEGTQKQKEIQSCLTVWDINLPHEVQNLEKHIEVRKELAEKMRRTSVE
T2 sequence (Q5S007 whole entry G2019S): as the sequence (Q5S007 whole entry) above, with G2019S counted along it

For the compound `Cc1c(C#N)ccc2c1CC[C@@H]2Oc1ccc2[nH]nc(-c3cnn(C(F)F)c3)c2c1` (single isomer, unassigned) [Example 50, enantiomer 1, 1-((3-(1-(Difluoromethyl)-1H-pyrazol-4-yl)-1H-indazol-5-yl)oxy)-4-methyl-2,3-dihydro-1H-indene-5-carbonitrile], the IC50 at LRRK2 WT and at LRRK2 G2019S was less than 100 nM each time.
In the case of `Cc1c(C#N)ccc2c1CC[C@@H]2Oc1ccc2[nH]nc(-c3cnn(C(F)F)c3)c2c1` (single isomer, unassigned) [Example 50, enantiomer 2, 1-((3-(1-(Difluoromethyl)-1H-pyrazol-4-yl)-1H-indazol-5-yl)oxy)-4-methyl-2,3-dihydro-1H-indene-5-carbonitrile], the IC50 at LRRK2 WT was less than 100 nM; at LRRK2 G2019S, 100 to 1000 nM.
For `N#Cc1ccc2c(c1F)CC[C@@H]2Oc1ccc2[nH]nc(-c3cnn(C(F)F)c3)c2c1` (single isomer, unassigned) [Example 51, enantiomer 1, 1-((3-(1-(Difluoromethyl)-1H-pyrazol-4-yl)-1H-indazol-5-yl)oxy)-4-fluoro-2,3-dihydro-1H-indene-5-carbonitrile], the IC50 at LRRK2 WT and at LRRK2 G2019S was less than 100 nM each time.
On to `Cc1c(C#N)ccc2c1CC[C@@H]2Nc1ccc2[nH]nc(-c3cnn(C(F)F)c3)c2c1` (single isomer, unassigned) [Example 52, enantiomer 1, 1-((3-(1-(Difluoromethyl)-1H-pyrazol-4-yl)-1H-indazol-5-yl)amino)-4-methyl-2,3-dihydro-1H-indene-5-carbonitrile], for which the half-inhibitory concentration (IC50) at LRRK2 WT and at LRRK2 G2019S was less than 100 nM throughout.
With `N#Cc1ccc2c(c1F)CC[C@H]2Nc1ccc2[nH]nc(-c3cnn(C(F)F)c3)c2c1` (single isomer, unassigned) [Example 53, enantiomer 1, 1-((3-(1-(Difluoromethyl)-1H-pyrazol-4-yl)-1H-indazol-5-yl)amino)-4-fluoro-2,3-dihydro-1H-indene-5-carbonitrile], the IC50 at LRRK2 WT and at LRRK2 G2019S was less than 100 nM each time.
For `N#Cc1ccc2c(c1F)CC[C@H]2Nc1ccc2[nH]nc(-c3cnn(C(F)F)c3)c2c1` (single isomer, unassigned) [Example 53, enantiomer 2, 1-((3-(1-(Difluoromethyl)-1H-pyrazol-4-yl)-1H-indazol-5-yl)amino)-4-fluoro-2,3-dihydro-1H-indene-5-carbonitrile], the IC50 on LRRK2 WT was 100 to 1000 nM; on LRRK2 G2019S, less than 100 nM.
Regarding `N#Cc1ccc2c(c1)CCC[C@@H]2Nc1ccc2[nH]nc(C3=CCCCC3)c2c1` (single isomer, unassigned) [Example 54, 5-((3-(Cyclohex-1-en-1-yl)-1H-indazol-5-yl)amino)-5,6,7,8-tetrahydronaphthalene-2-carbonitrile], the IC50 at LRRK2 WT was 1000 to 10000 nM; at LRRK2 G2019S, 100 to 1000 nM.
The like results for `N#Cc1ccc2c(c1)CCC[C@@H]2Nc1ccc2[nH]nc(-c3ccc(C(=O)O)cc3)c2c1` (single isomer, unassigned) [Example 55, 4-(5-((6-Cyano-1,2,3,4-tetrahydronaphthalen-1-yl)amino)-1H-indazol-3-yl)benzoic acid] were, in that order, less than 100 nM and less than 100 nM.
Turning to `Cn1cc2ccc(-c3n[nH]c4ccc(N[C@H]5CCCc6cc(C#N)ccc65)cc34)cc2n1` (single isomer, unassigned) [Example 56, 5-((2′-Methyl-1H,2′H-[3,6′-biindazol]-5-yl)amino)-5,6,7,8-tetrahydronaphthalene-2-carbonitrile], the IC50 was in the range of 1000 to 10000 nM on LRRK2 WT and 100 to 1000 nM at LRRK2 G2019S.
In the case of `CS(=O)(=O)c1cccc(-c2n[nH]c3ccc(N[C@H]4CCCc5cc(C#N)ccc54)cc23)c1` (single isomer, unassigned) [Example 57, 5-((3-(3-(Methylsulfonyl)phenyl)-1H-indazol-5-yl)amino)-5,6,7,8-tetrahydronaphthalene-2-carbonitrile], the IC50 on LRRK2 WT and at LRRK2 G2019S was less than 100 nM throughout.
For the compound `COc1cc(OC)cc(-c2n[nH]c3ccc(N[C@H]4CCCc5cc(C#N)ccc54)cc23)c1` (single isomer, unassigned) [Example 58, 5-((3-(3,5-Dimethoxyphenyl)-1H-indazol-5-yl)amino)-5,6,7,8-tetrahydronaphthalene-2-carbonitrile], the IC50 at LRRK2 WT is 100 to 1000 nM; on LRRK2 G2019S it was less than 100 nM.
`Cc1ncc(-c2n[nH]c3ccc(N[C@H]4CCCc5cc(C#N)ccc54)cc23)o1` (single isomer, unassigned) [Example 60, 5-((3-(2-Methyloxazol-5-yl)-1H-indazol-5-yl)amino)-5,6,7,8-tetrahydronaphthalene-2-carbonitrile]: the IC50 at LRRK2 WT and at LRRK2 G2019S was less than 100 nM throughout.
On to `N#Cc1ccc2c(c1)CCC[C@@H]2Nc1ccc2[nH]nc(-c3ccc4cc[nH]c4c3)c2c1` (single isomer, unassigned) [Example 61, 5-((3-(1H-Indol-6-yl)-1H-indazol-5-yl)amino)-5,6,7,8-tetrahydronaphthalene-2-carbonitrile], for which the IC50 at LRRK2 WT was 100 to 1000 nM; at LRRK2 G2019S it was less than 100 nM.
As for `Cn1cc(-c2n[nH]c3ccc(N[C@H]4CCCc5cc(C#N)ccc54)cc23)ccc1=O` (single isomer, unassigned) [Example 62, 5-((3-(1-Methyl-6-oxo-1,6-dihydropyridin-3-yl)-1H-indazol-5-yl)amino)-5,6,7,8-tetrahydronaphthalene-2-carbonitrile], the IC50 on LRRK2 WT and at LRRK2 G2019S was less than 100 nM in each case.
For `N#Cc1ccc(-c2n[nH]c3ccc(N[C@H]4CCCc5cc(C#N)ccc54)cc23)cc1` (single isomer, unassigned) [Example 63, 5-((3-(4-Cyanophenyl)-1H-indazol-5-yl)amino)-5,6,7,8-tetrahydronaphthalene-2-carbonitrile], the IC50 was 100 to 1000 nM on LRRK2 WT and less than 100 nM at LRRK2 G2019S.
The like results for `N#Cc1ccc2c(c1)CCC[C@@H]2Nc1ccc2[nH]nc(C3=CCCC3)c2c1` (single isomer, unassigned) [Example 65, 5-((3-(Cyclopent-1-en-1-yl)-1H-indazol-5-yl)amino)-5,6,7,8-tetrahydronaphthalene-2-carbonitrile] were, in that order, 1000 to 10000 nM and 100 to 1000 nM.
On to `N#Cc1ccc2c(c1)CCC[C@@H]2Nc1ccc2[nH]nc(-c3ccc(F)c(C(=O)O)c3)c2c1` (single isomer, unassigned) [Example 66, 5-(5-((6-Cyano-1,2,3,4-tetrahydronaphthalen-1-yl)amino)-1H-indazol-3-yl)-2-fluorobenzoic acid], for which the values for the IC50 on LRRK2 WT and on LRRK2 G2019S were 100 to 1000 nM and less than 100 nM, respectively.
Regarding `N#Cc1ccc2c(c1)CCC[C@@H]2Nc1ccc2[nH]nc(-c3ccc4scnc4c3)c2c1` (single isomer, unassigned) [Example 67, 5-((3-(Benzo[d]thiazol-5-yl)-1H-indazol-5-yl)amino)-5,6,7,8-tetrahydronaphthalene-2-carbonitrile], the IC50 at LRRK2 WT and at LRRK2 G2019S was less than 100 nM each time.
`N#Cc1ccc2c(c1)CCC[C@@H]2Nc1ccc2[nH]nc(-c3cccc(C(F)F)c3)c2c1` (single isomer, unassigned) [Example 68, 5-((3-(3-(Difluoromethyl)phenyl)-1H-indazol-5-yl)amino)-5,6,7,8-tetrahydronaphthalene-2-carbonitrile]: the IC50 at LRRK2 WT and at LRRK2 G2019S was less than 100 nM throughout.
Turning to `CONC(=O)c1cccc(-c2n[nH]c3ccc(N[C@H]4CCCc5cc(C#N)ccc54)cc23)c1` (single isomer, unassigned) [Example 69, 3-(5-((6-Cyano-1,2,3,4-tetrahydronaphthalen-1-yl)amino)-1H-indazol-3-yl)-N-methoxybenzamide], the IC50 at LRRK2 WT and at LRRK2 G2019S was less than 100 nM throughout.
Turning to `N#Cc1ccc2c(c1)CCC[C@@H]2Nc1ccc2[nH]nc(-c3ccc([N+](=O)[O-])cc3)c2c1` (single isomer, unassigned) [Example 70, 5-((3-(4-Nitrophenyl)-1H-indazol-5-yl)amino)-5,6,7,8-tetrahydronaphthalene-2-carbonitrile], the IC50 is 100 to 1000 nM on LRRK2 WT and less than 100 nM on LRRK2 G2019S.
The like results for `COc1ccc(-c2n[nH]c3ccc(N[C@H]4CCCc5cc(C#N)ccc54)cc23)cc1OC` (single isomer, unassigned) [Example 71, 5-((3-(3,4-Dimethoxyphenyl)-1H-indazol-5-yl)amino)-5,6,7,8-tetrahydronaphthalene-2-carbonitrile] were, in that order, less than 100 nM and less than 100 nM.
Take `N#Cc1ccc2c(c1)CCC[C@@H]2Nc1ccc2[nH]nc(-c3ccc(N4CCOCC4)cc3)c2c1` (single isomer, unassigned) [Example 72, 5-((3-(4-Morpholinophenyl)-1H-indazol-5-yl)amino)-5,6,7,8-tetrahydronaphthalene-2-carbonitrile]: the IC50 on LRRK2 WT and on LRRK2 G2019S was less than 100 nM each time.
On to `COc1ccc(-c2n[nH]c3ccc(N[C@H]4CCCc5cc(C#N)ccc54)cc23)cc1C` (single isomer, unassigned) [Example 73, 5-((3-(4-Methoxy-3-methylphenyl)-1H-indazol-5-yl)amino)-5,6,7,8-tetrahydronaphthalene-2-carbonitrile], for which the IC50 at LRRK2 WT was 100 to 1000 nM; at LRRK2 G2019S, less than 100 nM.
For `CS(=O)(=O)c1ccc(-c2n[nH]c3ccc(N[C@H]4CCCc5cc(C#N)ccc54)cc23)cc1` (single isomer, unassigned) [Example 74, 5-((3-(4-(Methylsulfonyl)phenyl)-1H-indazol-5-yl)amino)-5,6,7,8-tetrahydronaphthalene-2-carbonitrile], the IC50 on LRRK2 WT and at LRRK2 G2019S was less than 100 nM throughout.
